According to the supplement of paper PMC10307832:

How the values were obtained:
Assay in all cases: relative viability (nuclei count vs DMSO), 5 days (fraction); higher = more cells survive
[1] = compound: Nc1ncn([C@H]2C[C@H](O)[C@@H](CO)O2)c(=O)n1 [Decitabine] + CC(=O)Nc1cccc(-n2c(=O)n(C3CC3)c(=O)c3c(Nc4ccc(I)cc4F)n(C)c(=O)c(C)c32)c1 [Trametinib] (partner 0.02 µM)
Outline: (§1)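 Lung cancer cell lines were seeded in 1536-well plates and dosed by pin tool the next day, with either a single drug or a fixed anchor-drug dose combined with five library-drug doses (not always all listed) spaced in √10 steps. Five days later, one step fixed the cells and stained their nuclei (final 0.05% Triton X-100, 1% formaldehyde, 1 ug/ml Hoechst), and nuclei were counted on 4× images. Relative viability is the nuclei count in treated wells divided by the count in vehicle wells, and each value is the median of duplicate plates.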

[2] = compound: O=C(C[C@H]1NCCC[C@@H]1O)Cn1cnc2cc(Br)c(Cl)cc2c1=O (racemic) [Halofuginone] + CS(=O)(=O)CCNCc1ccc(-c2ccc3ncnc(Nc4ccc(OCc5cccc(F)c5)c(Cl)c4)c3c2)o1 [Lapatinib] (partner 2 µM)
Outline: as §1

[3] = compound: Nc1ncn([C@H]2C[C@H](O)[C@@H](CO)O2)c(=O)n1 [Decitabine] + O=C(CCCCCCC(=O)Nc1ccccc1)NO [Vorinostat] (partner 1 µM)
Outline: as §1

[4] = compound: O=C(C[C@H]1NCCC[C@@H]1O)Cn1cnc2cc(Br)c(Cl)cc2c1=O (racemic) [Halofuginone] + CC(C)C[C@H](NC(=O)[C@H](Cc1ccccc1)NC(=O)c1cnccn1)B(O)O [Bortezomib] (partner 0.002 µM)
Outline: as §1

Cell Line | relative viability ([1]; first compound 0.04 µM) | relative viability ([1]; first compound 0.1265 µM) | relative viability ([1]; first compound 0.4 µM) | relative viability ([1]; first compound 1.265 µM) | relative viability ([1]; first compound 4 µM) | relative viability ([2]; first compound 0.001 µM) | relative viability ([2]; first compound 0.003162 µM) | relative viability ([2]; first compound 0.01 µM) | relative viability ([2]; first compound 0.03162 µM) | relative viability ([2]; first compound 0.1 µM) | relative viability ([3]; first compound 0.04 µM) | relative viability ([3]; first compound 0.1265 µM) | relative viability ([3]; first compound 0.4 µM) | relative viability ([3]; first compound 1.265 µM) | relative viability ([3]; first compound 4 µM) | relative viability ([4]; first compound 0.001 µM) | relative viability ([4]; first compound 0.003162 µM) | relative viability ([4]; first compound 0.01 µM) | relative viability ([4]; first compound 0.03162 µM) | relative viability ([4]; first compound 0.1 µM)
NCI-H2085 | 0.514 | 0.451 | 0.394 | 0.364 | 0.308 | 0.769 | 0.762 | 0.695 | 0.778 | 0.649 | 0.65 | 0.657 | 0.591 | 0.443 | 0.431 | 1.07 | 1.06 | 1.04 | 0.9 | 0.753
NCI-H2087 | 0.175 | 0.179 | 0.189 | 0.179 | 0.163 | 1.05 | 1.29 | 1.21 | 0.959 | 1.19 | 0.268 | 0.285 | 0.301 | 0.304 | 0.208 | 0.758 | 0.839 | 0.86 | 0.676 | 0.917
NCI-H2126 | 0.576 | 0.545 | 0.474 | 0.422 | 0.44 | 0.798 | 0.732 | 0.773 | 0.743 | 0.683 | 0.675 | 0.678 | 0.477 | 0.488 | 0.386 | 1.16 | 1.08 | 1.07 | 1.07 | 1.11
NCI-H2228 | 0.396 | 0.394 | 0.358 | 0.198 | 0.204 | 1.06 | 1.02 | 0.908 | 0.657 | 0.121 | 0.221 | 0.304 | 0.16 | 0.169 | 0.179 | 1.06 | 0.856 | 0.988 | 0.426 | 0.151
NCI-H2347 | 0.295 | 0.334 | 0.267 | 0.257 | 0.287 | 1 | 0.853 | 0.906 | 0.918 | 0.65 | 0.522 | 0.542 | 0.521 | 0.379 | 0.424 | 1.24 | 1.09 | 0.758 | 1.03 | 0.852
NCI-H2405 | 0.575 | 0.732 | 0.645 | 0.493 | 0.407 | 1.14 | 1.01 | 1.02 | 1.02 | 0.861 | 0.765 | 0.878 | 0.894 | 0.561 | 0.395 | 1.07 | 0.948 | 0.968 | 0.943 | 0.904
NCI-H3122 | 0.213 | 0.208 | 0.243 | 0.167 | 0.218 | 1.02 | 1.05 | 0.975 | 0.987 | 1.04 | 0.92 | 0.866 | 0.574 | 0.53 | 0.487 | 1.05 | 1.06 | 1 | 0.954 | 1.04
PC-3 [JPC-3] | – | 0.7 | 0.498 | 0.485 | 0.657 | 0.466 | 0.428 | 0.436 | 0.511 | 0.461 | – | 0.554 | 0.507 | 0.454 | 0.567 | 0.852 | 0.875 | 0.736 | 0.799 | 0.873
PC-14 | 0.51 | 0.343 | 0.0811 | 0.146 | 0.128 | 0.325 | 0.311 | 0.343 | 0.419 | 0.313 | 0.0877 | 0.265 | 0.125 | 0.0989 | 0.0956 | 0.865 | 0.819 | 0.697 | 0.13 | 0.0654
RERF-LC-KJ | 0.808 | 0.885 | 0.558 | 0.594 | 0.636 | 0.951 | 0.888 | 0.795 | 0.833 | 0.874 | 0.573 | 0.651 | 0.286 | 0.528 | 0.494 | 1.23 | 1.12 | 1.15 | 1.17 | 1.04
SK-LU-1 | 0.443 | 0.528 | 0.386 | 0.45 | 0.365 | 0.945 | 1.04 | 0.806 | 0.787 | 0.505 | 0.611 | 0.65 | 0.443 | 0.453 | 0.433 | 1.28 | 0.931 | 0.955 | 1.31 | 0.821
SW 1573 | 0.44 | 0.638 | 0.368 | 0.27 | 0.301 | 1.13 | 1.29 | 1.1 | 1.1 | 1.07 | 0.515 | 0.601 | 0.458 | 0.325 | 0.206 | 1.03 | 1.02 | 1.15 | 0.653 | 0.227
